Test results published in patent publication US6476009B1, “Method for control and treatment of acquired immunodeficiency syndrome (AIDS)” (priority 1985, dated 2002).
Where “and” joins values, the source holds several entries; their conditions need not be identical. Equal entries are not always repeated.

Tests used:
[1] = molecular target: HTLV-III reverse transcriptase (Human immunodeficiency virus type 1 group M subtype B, UniProt P03366); assay: Purified HTLV-III reverse transcriptase assay; assay type: biochemical
Description: Source of HTLV-III Reverse Transcriptase and Assay Conditions. HTLV-III reverse transcriptase used in these studies was purified by sequential chromatography on DEAE, cellulose, phosphocellulose and hydroxyapatite. The purified anzyme was stored in 50 mM Tris-HC1 (pH 7.5), 1 mM dithiothreitol (DTT), 0.01% Triton X-100 and 20% glycerol. Reverse transcriptase assays were carried out in a reaction mixture (50 μl)containing 50 mM Tris-HC1 (pH 7.5), 5 mM DTT, 100mM potassium chloride, 0.01% Triton X-100 or NP40, 10 μg/ml (dT)15.(A)n as template primer and/^3H/deoxythymidine triphosphate (/^3H/-dTTP). The reaction mixture was incubated for 1 hour at 37°, and the reaction was stopped by the addition of 50 μg of yeast tRNA and 2 ml of 10% solution of trichloroacetic acid (TCA) containing 1 mM sodium pyrophosphate. The samples were filtered on millipore filters (0.45 μm), washed first with 5% TCA solution (5 times) and then with 2 ml of 70% ethanol. The filters were dried under a heat lamp, scintillation fluid was added and the radioactivity counted in a β-scintillation counter.
The effect of foscarnet on purified HTLV-III reverse transcriptase (RT) was assayed as a function of drug concentration.

HTLV-III = assay: Replication of HTLV-III in H9 cells (RT activity readout); assay type: cell-based; settings: Human immunodeficiency virus 1, 144 h
Description: HTLV-III Infection of H9 Cells. H9 cells constitute a human cell line that can be chronically infected with HTLV-III virus. (Science 1984; 224: 497-500). H9 cells were treated with polybrene (2 μg/ml) for 30 min. at 37° C., washed free of polybrene and infected with 2×10^8 HTLV-III virus particles per 4×10^5 H9 cells. […] The cultures were analyzed for HTLV-III reverse transcriptase activity as described above.
The effect of foscarnet on the replication of HTLV-III in H9 cells was determined as a function of both foscarnet concentration and time of incubation.

variety of cell types = assay: Cell growth inhibition in a variety of cell types; assay type: cell-based
Uninfected H9 cells = assay: Growth inhibition of uninfected H9 cells; assay type: cell-based; settings: Homo sapiens, 750 μM foscarnet
cytomegalovirus (CMV) = assay: Clinical effect of infusion in patients with severe herpesvirus infections; assay type: in vivo; settings: intravenous constant infusion 1-4 weeks, severe herpesvirus infections mainly CMV
[2] = test system: labial and genital herpes; assay: Clinical evaluation of topical formulation against labial and genital herpes; assay type: in vivo
[3] = Steady-state serum level in patients on constant intravenous infusion; settings: constant intravenous infusion for 1-4 weeks, most cases
Description: These patients were given foscarnet intravenously by constant infusion for 1-4 weeks and, at steady state, serum levels of foscarnet reached in most cases were 300-450 μM (100-150 μg/ml).

**Q.** Which IC50 [1] does the source give for `O=C(O)P(=O)(O)O` [foscarnet, trisodium phosphonoformate hexahydrate] here?
**A.** Its IC50 is 0.1 to 2 µM.

**Q.** What about the “mode of inhibition of reverse transcriptase” value ([1]; with respect to substrate and template) of the same molecule?
**A.** Its value is “noncompetitive with respect to substrate and uncompetitive with respect to template”.

**Q.** What about the inhibition at 50 µM (HTLV-III; 50 μM foscarnet, 6 days of incubation) of the same molecule?
**A.** The inhibition at 50 µM was 50%.

**Q.** What about the inhibition at 300 µM (HTLV-III; 300 μM foscarnet, six days of incubation) of the same molecule?
**A.** The inhibition at 300 µM was over 95%.

**Q.** And the “cell growth after removal of the drug” value (variety of cell types; stationary cells treated with 10 mM foscarnet)?
**A.** Its value is “normal cell growth can be seen”.

**Q.** What about the “reversibility of cell growth inhibition” value (variety of cell types; variety of cell types) of the same molecule?
**A.** Its value is “reversible”.

**Q.** What about the IC50 (variety of cell types; variety of cell types, read-out: concentration inhibiting cell growth by 50%) of the same molecule?
**A.** Its IC50 is about 1000 µM.

**Q.** What about the inhibition at 750 µM (Uninfected H9 cells) of the same molecule?
**A.** Its inhibition at 750 µM is under 50%.

**Q.** What about the “clinical effect in treated patients” value (cytomegalovirus (CMV)) of the same molecule?
**A.** The value was “clear indications of a beneficial effect”.

**Q.** And the “clinical activity and tolerability” value [2]?
**A.** Its value is “active and well tolerated”.

**Q.** What about the “steady state serum level” value [3] of the same molecule?
**A.** The value was 300-450 μM and 100-150 μg/ml.
